# Assay results from ChEMBL document CHEMBL4619806, “Screening of a Custom-Designed Acid Fragment Library Identifies 1-Phenylpyrroles and 1-Phenylpyrrolidines as Inhibitors of Notum Carboxylesterase Activity” (J Med Chem, 2020).
# Experiments:
# [1] = target: T1, Palmitoleoyl-protein carboxylesterase NOTUM (Homo sapiens, UniProt Q6P988, C330S); assay: Inhibition of human Notum (S81 to T451 residues) Cys330Ser mutant expressed in HEK293S GnTI cells using OPTS as substrate incubated for 40 mins by fluorescence based assay
# [2] = target: T1, Palmitoleoyl-protein carboxylesterase NOTUM; assay: Inhibition of human Notum (S81 to T451 residues) Cys330Ser mutant expressed in HEK293S GnTI cells at 100 uM using OPTS as substrate incubated for 40 mins by fluorescence based assay relative to control
# [3] = Chromatographic hydrophobicity index, log D of the compound at pH 7.4; type: physicochemical; details: buffer
# [4] = Apparent permeability from basolateral to apical side in MDCK2-MDR1 cells at 10 uM measured up to 120 mins by LC-MS/MS analysis; type: ADME, cell-based, Canis lupus familiaris; details: dog, MDCK-MDR1
# [5] = Intrinsic clearance in mouse liver microsomes at 1 uM measured up to 60 mins in presence of NADPH by LC-MS/MS analysis; type: ADME, Microsome; details: read-out: CLH
# [6] = Aqueous solubility at pH 7.4; type: physicochemical; details: buffer
# [7] = Apparent permeability from apical to basolateral side in MDCK2-MDR1 cells at 10 uM measured up to 120 mins by LC-MS/MS analysis; type: ADME, cell-based, Canis lupus familiaris; details: dog, MDCK-MDR1
# [8] = Efflux ratio of apparent permeability in MDCK2-MDR1 cells at 10 uM measured up to 120 mins by LC-MS/MS analysis; type: ADME, cell-based, Canis lupus familiaris; details: dog, MDCK-MDR1
# T1 sequence (Q6P988 20-496 C330S limits assumed): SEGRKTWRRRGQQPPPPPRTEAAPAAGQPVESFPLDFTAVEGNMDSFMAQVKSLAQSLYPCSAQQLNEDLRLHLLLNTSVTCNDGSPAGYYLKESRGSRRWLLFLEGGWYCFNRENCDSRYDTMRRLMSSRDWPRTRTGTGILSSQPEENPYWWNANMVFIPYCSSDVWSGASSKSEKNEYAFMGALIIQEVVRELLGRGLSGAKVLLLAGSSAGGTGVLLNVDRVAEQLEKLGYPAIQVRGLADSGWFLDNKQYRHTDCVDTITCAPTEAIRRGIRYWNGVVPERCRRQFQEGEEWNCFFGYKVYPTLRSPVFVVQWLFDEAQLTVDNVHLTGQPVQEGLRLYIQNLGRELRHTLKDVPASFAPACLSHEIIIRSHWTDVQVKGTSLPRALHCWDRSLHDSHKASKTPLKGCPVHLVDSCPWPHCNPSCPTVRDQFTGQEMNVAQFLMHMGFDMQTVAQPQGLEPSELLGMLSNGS
SMILES,IC50 [1] [µM],other results
Cc1cc(C(=O)O)c(C)n1Cc1ccccc1,14,
Cc1cc(C(=O)O)c(C)n1C1CC1,6.3,
Cc1cc(C(=O)O)c[nH]1,100,inhibition at 100 µM [2]: 50%
Cc1[nH]ccc1C(=O)O,> 100,inhibition at 100 µM [2]: < 20%
Cc1cc(C(=O)O)c(C)n1C,> 100,inhibition at 100 µM [2]: 20 to 40%
O=C(C1CCN(c2ccc(Cl)c(C(F)(F)F)c2)C1)N1CCOCC1 (configuration not stated),9.7,
O=C(O)[C@H]1CCN(c2ccc(Cl)c(C(F)(F)F)c2)C1,,"chromatographic logD [3]: 1.5; Papp B→A at 2 h, 10 µM [4]: 43 ×10⁻⁶ cm/s; microsomal CLint at 1 µM [5]: 2.5 µL/min/mg; solubility [6]: > 595 µM; Papp A→B at 2 h, 10 µM [7]: 39 ×10⁻⁶ cm/s"
O=C(O)c1c[nH]c(C(F)(F)F)c1,> 100,inhibition at 100 µM [2]: < 20%
Cc1c(C(=O)O)cc(C(F)(F)F)n1Cc1ccccc1,> 100,inhibition at 100 µM [2]: 20 to 40%
Cc1c(C(=O)O)ccn1Cc1ccccc1,3.1,
O=C(O)C1CCN(c2cccc(C(F)(F)F)c2F)C1 (configuration not stated),6.8,
O=C(O)C1CCN(c2ccccc2Cl)C1 (configuration not stated),19,
Cc1cc(C(=O)O)c(C)[nH]1,> 100,inhibition at 100 µM [2]: < 20%
Cc1c[nH]c(C)c1C(=O)O,100,inhibition at 100 µM [2]: 50%
Cc1cc(C(=O)O)c(C)n1CC1CC1,12.7,
O=C(O)C1CCN(c2ccccc2F)C1 (configuration not stated),11 to 11.3,
Cc1c(C(=O)O)cc(C(F)(F)F)n1-c1ccccc1,22,
FC(F)(F)c1cc(N2CCC(c3nnco3)C2)ccc1Cl (configuration not stated),24,

SMILES,IC50 [1] [µM],other results
Cc1c[nH]cc1C(=O)O,100,inhibition at 100 µM [2]: 50%
O=C(O)c1cc[nH]c1,> 100,inhibition at 100 µM [2]: < 20%
Cc1cccc(N2CCC(C(=O)O)C2)c1 (racemic),49,
O=C(O)C1CCN(c2ccc(F)cc2)C1 (racemic),15,
O=C(O)C1CCN(c2cccc(C(F)(F)F)c2)C1 (racemic),11,
O=C(O)C1CCN(c2cc(Cl)ccc2Cl)C1 (racemic),7.9,
O=C(O)C1CCN(c2cccc(OC(F)(F)F)c2)C1 (racemic),63,
O=C(O)C1CCN(c2cc(Cl)cc(Cl)c2)C1 (racemic),11,
O=C(O)C1CCN(c2cccc(Cl)c2)C1 (racemic),14,
O=C(O)C1CCN(c2ccc(Cl)cc2)C1 (racemic),19,
O=C(O)C1CCN(c2cccc(Cl)c2Cl)C1 (racemic),8,
N#Cc1cccc(N2CCC(C(=O)O)C2)c1 (racemic),42,
O=C(O)C1CCN(c2c(Cl)cccc2Cl)C1 (racemic),26,
O=C(O)C1CCN(c2ccc(C(F)(F)F)cc2)C1 (racemic),50,
O=C(O)C1CCN(c2ccc(C(F)(F)F)c(Cl)c2)C1 (racemic),8.5,
CC(C)c1cccc(N2CCC(C(=O)O)C2)c1 (racemic),57,
O=C(O)C1CCN(c2ccc(Cl)cc2Cl)C1 (racemic),10,

# Further molecules by falling IC50 [1], results first:
IC50 [1] [µM],SMILES,other results
6.7,Cc1[nH]c(C(F)(F)F)cc1C(=O)O,
4.2,O=c1[nH]nc(C2CCN(c3ccc(Cl)c(C(F)(F)F)c3)C2)o1 (configuration not stated),"chromatographic logD [3]: 3.5; Papp B→A at 2 h, 10 µM [4]: 19 ×10⁻⁶ cm/s; microsomal CLint at 1 µM [5]: 10 µL/min/mg; solubility [6]: 69 µM; Papp A→B at 2 h, 10 µM [7]: 13 ×10⁻⁶ cm/s; efflux ratio at 2 h, 10 µM [8]: 1.5"
3.8,Cc1c(C(=O)O)ccn1-c1ccccc1,
3.5,COCCNC(=O)C1CCN(c2ccc(Cl)c(C(F)(F)F)c2)C1 (configuration not stated),
3.3,Cc1cc(C(=O)O)c(C)n1-c1ccccc1F,
3.1,CN1CCN(C(=O)C2CCN(c3ccc(Cl)c(C(F)(F)F)c3)C2)CC1=O (configuration not stated),
3.1,Cc1cc(C(=O)O)c(C)n1-c1cccc(C#N)c1,
3.1,O=C(C1CCN(c2ccc(Cl)c(C(F)(F)F)c2)C1)N1CC2COCC2C1 (configuration not stated),
2.5,O=C(O)C1CCN(c2ccc(F)c(C(F)(F)F)c2)C1 (racemic),
2.3,Cc1cc(C(=O)O)c(C)n1-c1c(Cl)cccc1Cl,
2.3,Cc1cc(C(=O)O)c(C)n1-c1ccccc1Cl,
2.2,Cc1ccccc1-n1c(C)cc(C(=O)O)c1C,
2.1,Cc1cc(C(=O)O)c(C)n1-c1ccc(Cl)c(C(F)(F)F)c1,
2,Cc1ccc(-n2c(C)cc(C(=O)O)c2C)cc1,
2,Cc1cc(C(=O)O)c(C)n1-c1cccc(Cl)c1C#N,
1.9,Cc1cc(C(=O)O)c(C)n1-c1ccc(F)cc1,
1.7,Cc1cc(C(=O)O)c(C)n1-c1ccccc1,
1.7,Cc1cc(C(=O)O)c(C)n1-c1cc(Cl)ccc1Cl,
1.5,COc1cccc(-n2c(C)cc(C(=O)O)c2C)c1,
1.5,Cc1cccc(-n2c(C)cc(C(=O)O)c2C)c1,
1.5,Cc1cc(C(=O)O)c(C)n1-c1cccc(F)c1,
1.5,Cc1cc(C(=O)O)c(C)n1-c1cccc(C(F)(F)F)c1,
1.5,Cc1cc(C(=O)O)c(C)n1-c1ccc(C(F)(F)F)c(Cl)c1,

IC50 [1] [µM],SMILES,other results
1.4,CN1CN(C(=O)C2CCN(c3ccc(Cl)c(C(F)(F)F)c3)C2)CC1=O (configuration not stated),
1.3,CNC(=O)C1CCN(c2ccc(Cl)c(C(F)(F)F)c2)C1 (configuration not stated),
1.2,CN(C)C(=O)C1CCN(c2ccc(Cl)c(C(F)(F)F)c2)C1 (configuration not stated),
1.2,O=C(O)C1CCN(c2ccc(Cl)c(Cl)c2)C1 (racemic),
1,O=C(Nc1ccccc1)C1CCN(c2ccc(Cl)c(C(F)(F)F)c2)C1 (configuration not stated),
0.86,Cc1cc(C(=O)O)c(C)n1-c1ccc(Cl)cc1,
0.85,Cc1cc(C(=O)O)c(C)n1-c1cc(Cl)cc(Cl)c1,
0.8,COc1c(Cl)cccc1-n1c(C)cc(C(=O)O)c1C,
0.64,CCOc1cccc(-n2c(C)cc(C(=O)O)c2C)c1,
0.63,Cc1cc(C(=O)O)c(C)n1-c1cccc(C#N)c1F,
0.6,O=C(O)C1CCN(c2ccc(Cl)c(Cl)c2Cl)C1 (racemic),
0.58,Cc1cc(C(=O)O)c(C)n1-c1cccc(C2CC2)c1,
0.46,Cc1cc(C(=O)O)c(C)n1-c1cccc(C(C)(C)C)c1,
0.43,Cc1cc(C(=O)O)c(C)n1-c1cccc(Cl)c1,
0.43,Cc1cc(C(=O)O)c(C)n1-c1ccc(Cl)cc1Cl,
0.41,O=C(C1CCN(c2ccc(Cl)c(C(F)(F)F)c2)C1)N1CCCC1 (configuration not stated),
0.38,Cc1cc(C(=O)O)c(C)n1-c1cccc(Cl)c1F,
0.36,Cc1cc(C(=O)O)c(C)n1-c1cccc(C(C)C)c1,
0.27,Cc1cc(C(=O)O)c(C)n1-c1ccc(Cl)c(Cl)c1,
0.26,O=C(C1CCN(c2ccc(Cl)c(C(F)(F)F)c2)C1)N1CC(F)(F)C1 (configuration not stated),"chromatographic logD [3]: 4; Papp B→A at 2 h, 10 µM [4]: 10 ×10⁻⁶ cm/s; microsomal CLint at 1 µM [5]: 21 µL/min/mg; solubility [6]: 19 µM; Papp A→B at 2 h, 10 µM [7]: 8 ×10⁻⁶ cm/s; efflux ratio at 2 h, 10 µM [8]: 1.2"
0.22,Cc1cc(C(=O)O)c(C)n1-c1cccc(Cl)c1Cl,
0.2,Cc1cc(C(=O)O)c(C)n1-c1cccc(C2CC2)c1F,
0.15,Cc1cc(C(=O)O)c(C)n1-c1cccc(C(C)C)c1F,"chromatographic logD [3]: 3.1; Papp B→A at 2 h, 10 µM [4]: 43 ×10⁻⁶ cm/s; microsomal CLint at 1 µM [5]: 52 µL/min/mg; solubility [6]: 51 µM; Papp A→B at 2 h, 10 µM [7]: 46 ×10⁻⁶ cm/s; efflux ratio at 2 h, 10 µM [8]: 0.93"
